From patent US20190380985A1, “Composition Containing N-acetyldiaminobutyric Acid” (bitop AG, priority 2016, published 2019)

Key:
[1] = system: TR146 cell line; experiment: Membrane stabilization, calcein AM assay, TR146; type: cell-based, human; details: different concentrations, compared to PBS only; FIG. 5
Protocol: This is a buccal human cell line of oral mucosa cells. The cells were placed in a microtiter plate having 96 wells. As soon as confluence was reached, the cells were washed with PBS and provided with different concentrations of N-acetyldiaminobutyric acid. The negative control contained only PBS, the positive control cDPG (cyclic 2,3-diphosphoglycerate). Following incubation, the cells were again washed with PBS and incubated with 5 μM of calcein AM for a period of 45 min. The hydrolysis of calcein AM, which itself is non-fluorescent, by intracellular esterases produces calcein, a hydrophilic, highly fluorescent compound that is retained in the cytoplasm of the cells. Accordingly, high fluorescence is indicative of high cell viability.

[2] = system: SIRC cell line; experiment: Matsuo moisturizing assay (calcein AM viability after air-drying); type: cell-based, rabbit; details: 25 mM; 15 min treatment, 45 min air-drying; FIG. 1
Protocol: The skin/mucosal moisturizing effect of N-acetyldiaminobutyric acid was investigated using a Matsuo moisturizing assay (Matsuo, Br J. Opthalmol. 85: 610-612). An SIRC cell line isolated from rabbit eyes was used for this purpose. For the experiments, 30,000 cells were placed in each well of a 96 well microtiter plate. After approx. 24 h a complete monolayer had formed in each case. The supernatant was then removed and 100 μl of the test substances diluted in PBS (phosphate buffered salt solution) were applied to the cells for 15 min. Then, the supernatant was removed again. At this stage, the cells were not washed with PBS. Under sterile conditions the cells were air-dried over a period of 45 min. Following this, the cells were washed three times with PBS. To determine cell viability calcein AM staining (calcein-acetoxymethyl ester) was used. Calcein is a fluorescent dye. After the transport of calcein AM into the living cell, the ester groups were cleaved by esterases of the cell resulting in the formation of calcein causing a strongly green fluorescent complex to be formed with calcium ions present in the cell. […] In turn, a high cell viability attests to good wetting properties of the test substances.
The result is shown in FIG. 1 in comparison to the effect of ectoine and hyaluronic acid. […]

[3] = system: claudin-1; experiment: Claudin-1 specific ELISA after heat stress (tight junctions); type: cell-based, human; details: 6 h pretreatment 10-175 mM, 44° C. 30 min, FIG. 8
Excerpt: The examination focused on the upregulation of claudins, membrane proteins as constituents of tights junctions, which close off the gaps between the cells of the epithelium so that a barrier is formed. This barrier controls the penetration of molecules via the epithelium. Specifically, the pore occluding claudin-1 was examined. An increased expression of claudin-1 leads to higher imperviousness of the epithelial membrane and increased transepithelial electrical resistance (TEER). The permeability is thus reduced.
The epithelial cell line (HaCaT) used for the experiment was cultivated in wells on a microtiter plate until a closed cell monolayer had developed. Subsequently, the cells were pretreated with NADA for 6 hours in the cell culture medium (10, 25, 50, 75, 100 and 175 mM). The cells were then suddenly exposed to a temperature of 44° C. for a period of 30 min. before being kept at 37° C. for another 24 and 48 hours respectively. The cells were harvested and the lysate was analyzed using a claudin-1 specific ELISA (enzyme-linked immunosorbent assay). The results can be seen from FIG. 8.

[4] = system: HaCaT cells; experiment: IR protection test using LDH assay; type: cell-based, human; details: 5 h preincubation, 44° C. for 30 min, 60 h at 37° C., FIG. 4; for liberation of LDH (protection against heat/IR): compared to untreated cells
Excerpt: Infrared (IR) radiation brings about an increase in skin temperature, which is associated with an increase in the number of free radicals and increased expression of heat shock inducing metalloproteases (MMP). A permanent exposure to IR radiation may result in an increase in cell death rate through apoptosis. In order to determine the potential of NADA and, for comparative purposes, ectoine on eukaryotic cells regarding the protection against heat and IR radiation, HaCaT cells (human keratinocyte cell line) were applied to 96 wells of a microtiter plate. After a uniform cell layer had formed, the test substances were applied to the medium and the cells were incubated for 5 hours at a temperature of 37° C. Following preincubation, the cells were exposed to a temperature of 44° C. for 30 min. The cells were then incubated at 37° C. for a further 60 hours.

[5] = system: HaCaT cells; experiment: ATP assay on aged keratinocytes (cell metabolism); type: cell-based, human; details: 5 h incubation in PBS, compared to PBS only (0%), FIG. 7
Excerpt: HaCaT cells (a keratinocyte cell line) were placed on a 96-well microtiter plate and a cell culture was allowed to form for a period of at least one week until cell growth was stopped by contact inhibition. Following this, the cells were cultivated for another week to simulate the ageing process. The cell culture medium was changed over to PBS with the addition of NADA and reference substances such as glucosylglycerol, ectoine (28Extremoin) and Myramaze®, a commercially available anti-aging product. The cells were incubated for a period of 5 hours. Finally, an ATP assay was prepared, whereby a high ATP synthesis indicates a high degree of metabolism and thus attests to cell vitality. The results can be seen from FIG. 7.

[6] = system: HaCaT cells; experiment: UV protection test via TEER assay; type: cell-based, human; details: 100 mM, overnight preincubation, 45 min UV-B, 24 h later; FIG. 2
Excerpt: A characteristic feature of epithelial as well as endothelial cell layers is the formation of intercellular connections leading to a dense cell barrier separating the basolateral (abluminal) side from the apical (luminal) side. The cell layers form selectively permeable interfaces between different compartments, in this way controlling the diffusion in intercellular space as well as intracellular transport processes. This is ensured by tight junctions (paracellular barriers in the intercellular space). The integrity of these barriers is determined by the so-called TEER method (transepithelial/transendothelial electrical resistance). A defined DC voltage is applied to two electrodes on both sides of the cell layer. The flowing current is measured, which yields the respective resistance results according to Ohm's law.
HaCaT cells were used, a human keratinocyte cell line. These were applied to PET membranes (“ThinCerts®”). It was waited until the cells had formed a complete and intact monolayer. […]
In order to accomplish a closer investigation of the protective effect of membranes stabilized by N-acetyldiaminobutyric acid against UV radiation, keratinocytes were incubated overnight in a cell culture medium with PBS, NADA (50 mM and 100 mM) and other compounds. […] The cells were incubated for another 24 hours and the TEER values were determined. […]

[7] = system: Phenion skin model; experiment: UV protection test using LDH assay on full thickness skin model; type: cell-based; details: 4 h incubation, compared with PBS, FIG. 3
Protocol: In order to further evaluate the UV, protection effect of NADA, a full thickness skin model of Henkel (Phenion skin, model) was used. This is based on a bovine collagen structure, which is morphologically equivalent to human skin and thus allows examinations to be easily carried out. The Phenion skin model was incubated with the test substances for 4 hours. These were applied directly to the top surface. Subsequently, the Phenion skin model was exposed to UV-B radiation for 2 hours. […] The skin model was then incubated for another 24 hours and the LDH (lactate dehydrogenase) value was determined, which is a measure of the degree of damage caused to the cells.

[8] = system: LLC-PK1 cell line; experiment: Membrane stabilization, calcein AM assay, LLC-PK1; type: cell-based; details: LLC-PK1 cells; FIG. 6

SMILES	calcein fluorescence (stabilization of epithelial cells) [1]	viability of the cells and thus the humidification after drying of the cells [2]	expression of claudin-1 ([3]; then 24 hours at 37° C.)	expression of claudin-1 ([3]; then 48 hours at 37° C.)	protection against IR radiation relative to ectoine [4]	liberation of LDH (protection against heat/IR) [4]	ATP activity (cell metabolism) [5]	change of the TEER value after UV-B radiation [6]	LDH value after UV exposure (UV protection) ([7]; 2 h UV-B, 24 h later)	LDH value before UV exposure ([7]; before UV-B)	calcein fluorescence (membrane stabilizing effect) [8]
CC(=O)NCCC(N)C(=O)O (stereo not drawn) [NADA, N-acetyldiaminobutyric acid]	significant, concentration-dependent stabilization of the epithelial cells	comparable results to ectoine	distinct increase in the expression of claudin-1	distinct increase in the expression of claudin-1	more effective than ectoine	offer protection against intense IR radiation	reactivation of aged keratinocytes	significant protection of the cell membrane	shows UV protection properties	approximately the same for PBS and NADA	membrane stabilizing effect
CC1=NC(C(=O)O)CCN1 (stereo not drawn) [ectoine, 2-methyl-1,4,5,6-tetrahydropyrimidine-4-carboxylic acid, reference compound]	–	–	–	–	–	offer protection against intense IR radiation	–	–	–	–	–
